Experimental data published in patent US20230331792A1, “NEW MULTI-FUNCTIONAL OLIGOPEPTIDES” (ENLITISA (SHANGHAI) PHARMACEUTICAL CO., LTD., priority 2019, published 2023).
Square brackets hold non-standard residues; d marks the D form. Ends that are not written are not given here. Dopa = N[C@@H](Cc1ccc(O)c(O)c1)C(=O)O; Hyp = O=C(O)[C@@H]1C[C@@H](O)CN1

Experiments:
db/db mice = assay: Diabetic wound model, VEGF and TGF-β1 content in wound tissues; type: in vivo; conditions: topical once daily; 1.65, 16.45, 164.5 μg/wound/day; vs model group
Protocol: 8 to 12 week old male db/db mice (C57BL/KsJ-db/db, with a body weight of 35-45 g/mouse) supplied by Changzhou Cvens Experimental Animal Co. Ltd. Prior to any experiments being conducted, mice were housed under standardized conditions at a constant temperature of 22±2° C., with alternating 12-hour periods of light and darkness, and were fed on a standard mouse diet with water, for about a week.
General anesthesia was induced using intraperitoneal 3% chloral hydrate (Sinopharm Chemical Reagent Co., Ltd.; 1 mL/10 g of body weight). The hair on the back was shaved by a baby hair shaver and depilated with cream. The skin area was wiped and sterilized with 75% alcohol twice.
An EMS skin biopsy punch with an 18 mm diameter was used to make a round wound on the back. The full thickness of skin was removed, and the depth of the wound reached the fascia. Wounds were left open without a suture.
The model group was given same amount of normal saline. There were 12 mice in each group apart from the control group, which had 8 mice. The skin pieces taken during wound creation were used as the samples at Day 7 for the control group.
Recombinant Human Epidermal Growth Factor (rhEGF) was purchased and prepared according to the instructions by the manufacturer. The lyophilized rhEGF powder (100000 IU/vial) was dissolved in 20 mL of normal saline to make a solution with a concentration of 5000 IU/mL. The working dose of rhEGF for this experiment was 1285 IU/wound.
Compound A and Compound B were dissolved in saline at concentrations indicated in Table 7 below (L=low dose, M=medium dose, H=high dose). 50 μL of each solution was applied to the wound surfaces every day.
Vascular endothelial growth factor (VEGF) and transforming growth factor-beta 1 (TGF-β1) play prominent roles in wound healing process. VEGF and TGF-β1 are often co-expressed in tissues in which angiogenesis occurs.

patient = assay: Radiation stomatitis, patient case; type: in vivo, human; conditions: 0.5 mg/mL solution as mouthwash
Protocol: A patient was diagnosed with oral cancer and underwent radiation therapy.
After 3 weeks, oral mucositis developed with ulcers on the mucous membrane lining the mouth, throat and esophagus. It was very painful and the patient was not able to eat.
The patient then used Compound B solution (0.5 mg/mL; prepared as described in Example 38 above) as a mouthwash, as frequently as needed.

BALB/c mice = assay: Mouse ear swelling model (xylene); type: in vivo; conditions: for Swelling rate: about 0.1 g on right ear 1 h before xylene; for effect on edema caused by inflammation: hydrogels 0.5 and 1 mg/g
Protocol: 30 Health male BALB/c mice with 6-8 weeks old and average body weight of 18-25 g were supplied by Changzhou Cvens Experimental Animal Co., Ltd. and housed and cared for about 1 week prior to the experiment. […] The mice were randomly divided into 6 groups as described in Table 8, with 5 mice in each group. Compound A and Compound B were dissolved at concentrations indicated in Table 8 below (L=low dose, M=medium dose, H=high dose).
All excipients were obtained from Sinopharm Chemical Reagent Co. Ltd. The gels were made with water for injection.
Dexamethasone acetate cream (Dex cream; 5 mg/10 g (which means that there was 5 mg Dex contained in 10 g of the cream), Fuyuan Pharmaceutical Co., Ltd., Anhui, China) was used as positive control.
The left ear of each mouse was used as an autologous control. The right ear of each mouse was treated with the above compounds in the stated concentrations (Table 8).
About 0.1 g of the various gels, and Dex cream were applied to the right ear of mice in each group, both inside and outside. The blank gel base was applied on the ears in the model groups. After 1 hour, 20 μL of xylene (Shanghai Aladdin Bio-Chem Technology Co., Ltd.) was applied to the same ear of each mouse.
The mice were sacrificed by cervical dislocation 40 minutes after xylene application. The left and right ears were cut off. An EMS skin biopsy punch with a diameter of 8 mm was used to take a piece of the ear from the same site on both ears. The weights were recorded, and the swelling rate was calculated as a percentage according to the following formula:
(right ear weight−left ear weight)/left ear weight×100

C57BL/6 mice = assay: Air pouch model (carrageenan-induced acute inflammation); type: in vivo; parameters: key to Inflammation score / Edema score: 1 = mild, 2 = moderate, 3 = severe
Protocol: Healthy adult male C57BL/6 mice weighing between 20 and 30 g were supplied by Changzhou Cvens Experimental Animal Co. Ltd. Prior to any experiments being conducted, the mice were housed under standardized conditions (at a constant temperature or 22±2° C., with alternating 12-hour periods of light and darkness), and were fed on a standard mouse diet with water, for about a week. The mice were randomly divided into 9 groups as described in Table 4, with 7 mice in each group.
General anaesthesia was induced using intraperitoneal delivery of 3% chloral hydrate (Sinopharm Chemical Reagent Co., Ltd., Shanghai, China); 1 mL/10 g of body weight). The hair of the entire dorsum was shaved and depilated one day before sterile air injection.
Air pouches were produced by subcutaneous injection of sterile air (5 mL) into the intrascapular area of the mice. After three days, another injection of air (3 mL) was performed to maintain the pouches. In order to induce acute inflammation, three days after the second injection, animals received an injection of sterile carrageenan solution (CP Kelco, Taixing, Jiangsu Province, China; 1%, 0.5 mL; produced by adding 0.1 g of carrageenan powder into a beaker containing 10 mL of 0.9% saline solution and stirring). Mice were pre-treated with test samples or vehicle 1 hour before and 23 hours after the carrageenan injection into the subcutaneous air pouch. Animals were sacrificed 24 hours after the carrageenan injection.
Skin biopsies were taken from the air pouches. A part of the biopsy was fixed in formalin (produced by adding ultra-pure water to 50 mL of a 40% formaldehyde solution (Nanchang Rain Dew Experimental Equipment Co., Ltd., Nanchang, […] Provence, China) up to a total volume of 500 mL) and analyzed by histological embedding in paraffin wax, sectioning and staining.
The histological specimens were analyzed, and an inflammation score and an edema score were estimated. The inflammation scores were estimated by observing heamatoxylin and eosin (HE) stained slices under an optical microscope. Scores (between 1 to 3 points) were given according to the perceived inflammation level (e.g. in cases where only a small amount of inflammatory cells scattered in the area: 1 point was given (mild); in cases where many inflammatory cells were observed: 2 points were given (moderate); and, in cases with diffuse infiltration: 3 points were given (severe)). A similar scoring system was employed for edema levels (3 points for most severe and 1 point for mild) after overall observation.
After conducting some preliminary experiments to validate the model, an experiment was conducted in which mice were treated by administering test samples or vehicle in accordance with Table 4 below. Compound A and Compound B were dissolved in saline at concentrations indicated in Table 4 below (L=low dose, M=medium dose, H=high dose).
Compound A and Compound B were synthesized as described in Examples 8 and 7 above, respectively. The peptide powders were stored at −20° C. prior to use. Dexamethasone (Dex) was obtained from Shanghai Aladdin Bio-Chem Technology Co., Ltd., Shanghai, China.

{[(Ala-Lys-Pro-Ser-Tyr-Hyp-Hyp-Thr-DOPA-Lys)2-Lys]2-Lys}2-Lys (AKPSY[Hyp][Hyp]T[Dopa]KKKK; also: branched lysine dendrimer {[(peptide)2-Lys]2-Lys}2-Lys) [Compound B]
content of TGF-β1 in wound tissues (FIG. 3) (db/db mice): stimulated the production | content of VEGF in wound tissues (FIG. 2) (db/db mice): stimulated the production | course of stomatitis during continued therapy (patient): stomatitis did not worsen | duration of pain relief (patient): one or two hours | pain of oral mucositis (patient; almost immediately after application): pain was very much reduced | Swelling rate (BALB/c mice; hydrogel 0.5 mg/g (L)): 43% | Swelling rate (BALB/c mice; hydrogel 1 mg/g (H)): 38% | effect on edema caused by inflammation (BALB/c mice): significantly eliminate the edema caused by inflammation | Edema score (C57BL/6 mice; low dose 50 μg/mouse): 2.00 | Inflammation score (C57BL/6 mice; low dose 50 μg/mouse): 1.83 | Sum of the scores (C57BL/6 mice; low dose 50 μg/mouse): 3.83 | Edema score (C57BL/6 mice; medium dose 250 μg/mouse): 2.14 | Inflammation score (C57BL/6 mice; medium dose 250 μg/mouse): 1.80 | Sum of the scores (C57BL/6 mice; medium dose 250 μg/mouse): 3.94

{[(Dopa-Ala-Lys-Pro-Ser-Tyr-Hyp-Hyp-Thr-Tyr-Lys)2-Lys]2-Lys}2-Lys ([Dopa]AKPSY[Hyp][Hyp]TYKKKK; also: branched lysine dendrimer {[(peptide)2-Lys]2-Lys}2-Lys) [Compound A]
content of TGF-β1 in wound tissues (FIG. 3) (db/db mice): stimulated the production | content of VEGF in wound tissues (FIG. 2) (db/db mice): stimulated the production | Swelling rate (BALB/c mice; hydrogel 0.5 mg/g (L)): 63% | Swelling rate (BALB/c mice; hydrogel 1 mg/g (H)): 43% | effect on edema caused by inflammation (BALB/c mice): significantly eliminate the edema caused by inflammation | Edema score (C57BL/6 mice; low dose 50 μg/mouse): 1.71 | Inflammation score (C57BL/6 mice; low dose 50 μg/mouse): 1.86 | Sum of the scores (C57BL/6 mice; low dose 50 μg/mouse): 3.57 | Edema score (C57BL/6 mice; medium dose 250 μg/mouse): 1.57 | Inflammation score (C57BL/6 mice; medium dose 250 μg/mouse): 1.57 | Sum of the scores (C57BL/6 mice; medium dose 250 μg/mouse): 3.14
